Reference: patent US4933497A, “Preparation of hydroxybenzaldehydes by hydrocarbonylation of halophenols” (Rhone-Poulenc Chimie, priority 1988, dated 1990)

How the values were obtained:
[1] = water
[2] = in water; cited from earlier work
[3] = in water (generally at 25° C.); cited from earlier work

Row | pKa of the halophenol [1] | Structure (SMILES) | pKa of the phosphine [2] | further results
1 | 9.5 | COc1cc(Br)ccc1O [4-bromo-2-methoxyphenol] | – | –
2 | ~9.5 | CCOc1cc(Br)ccc1O [4-bromo-2-ethoxyphenol] | – | –
3 | – | C1CCC(P(C2CCCCC2)C2CCCCC2)CC1 [tricyclohexylphosphine] | 9.7 | –
4 | – | c1ccc(P(c2ccccc2)c2ccccc2)cc1 [triphenylphosphine, reference compound] | 2.74 | –
5 | – | CN(C)c1ccncc1 [4-dimethylaminopyridine] | – | pKa of the conjugate acid of the amine [3]: 9.55
6 | – | c1ccc(CP(Cc2ccccc2)Cc2ccccc2)cc1 [tribenzylphosphine] | 6.0 | –
7 | – | CCP(CC)CC [triethylphosphine] | 8.69 | –

Row | Structure (SMILES) | pKa of the halophenol [1] | pKa of the phosphine [2] | further results
8 | Oc1ccccc1Br [2-bromophenol] | 8.55 | – | –
